Here are results for 2 compounds from PMC12621175, “Scaffold Fusion and SAR Transfer with a Chemical Language Model Generates Novel Liver X Receptor Modulators” (Journal of Medicinal Chemistry, 2025).

The subject of one data set is HepG2 cells. Kind of data set: resazurin-based proliferation assay, HepG2. It counts as cell-based. The procedure: HepG2 or HEK293T cells were seeded in 96-well plates (4 × 10^4 cells per well). […] After 4, 14, and 24 h, the medium was aspirated, and the cells were incubated with 100 μM resazurin solution in Opti-MEM (prepared from a 0.15 mg/mL resazurin stock in DPBS) for 60 min. The metabolic activity was assessed by conversion of resazurin to resorufin, which was quantified by measuring absorbance at 570 nm and a reference wavelength of 600 nm. The cell count was calculated from a calibration curve with 0–10^5 cells per well in steps of 2 × 10^4.

The next data set has as its target T1, RORα (NR1F1) (Homo sapiens, UniProt P35398).
T1 construct: coding for the hinge region, and LBD of the canonical isoform of the respective nuclear receptor; expressed in transfected cells; host or cells: HEK293T
T1 sequence (P35398 272-510 limits assumed): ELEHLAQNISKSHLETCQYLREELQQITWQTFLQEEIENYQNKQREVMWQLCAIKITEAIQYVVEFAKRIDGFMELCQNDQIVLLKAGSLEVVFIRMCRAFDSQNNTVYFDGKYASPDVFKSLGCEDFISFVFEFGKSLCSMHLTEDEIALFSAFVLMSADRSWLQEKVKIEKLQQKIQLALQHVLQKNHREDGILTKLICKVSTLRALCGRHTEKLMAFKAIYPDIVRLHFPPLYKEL
Kind of data set: Gal4-RORα hybrid reporter gene assay (off-target profiling). It counts as cell-based. The source says:
For the hybrid reporter gene assays, the previously reported Gal4-fusion receptor plasmids pFA-CMV-hRORα-LBD, pFA-CMV-hRORβ-LBD, pFA-CMV-hRORγ-LBD, pFA-CMV-hLXRα-LBD, pFA-CMV-hLXRβ-LBD, pFA-CMV-hFXR-LBD, pFA-CMV-hPXR-LBD, and pFA-CMV-hRXRα-LBD, coding for the hinge region, and LBD of the canonical isoform of the respective nuclear receptor were used. pFR-Luc (Stratagene) was used as the reporter plasmid, and pRL-SV40 (Promega) was used in all assays for the normalization of transfection efficiency and cell growth. pECE-SV40-Gal4-VP16 was a gift from Lea Sistonen (Addgene plasmid #71728). The LXR-responsive reporter ABCA1-pGL3 was used for the full-length reporter gene assay.
The day before transfection, HEK293T cells were seeded in 96-well plates (4 × 10^4 cells/well). Before transfection, the medium was changed to Opti-MEM without any supplements. […] Luminescence was measured with a Spark 10 M luminometer (Tecan Deutschland GmbH). […] EC50/IC50 values and the standard errors thereof were calculated with the mean fold activation values by OriginPro, Version 2025 (OriginLab Corporation, Northampton, MA, USA), fitting a dose–response curve with a variable Hill slope (Levenberg–Marquardt algorithm). […]
For orientation: A reporter such as luciferase makes a cellular process visible.

In another data set the test system is APOE. Kind of data set: qPCR of LXR-regulated mRNA expression in HepG2: APOE. It counts as cell-based, human. As to conditions: HepG2, 24 h. On the technique in general: Real-time PCR tracks product formation cycle by cycle.
A further data set concerns SREBP1c. Kind of data set: qPCR of LXR-regulated mRNA expression in HepG2: SREBP1c. In kind it is cell-based, human. As to conditions: HepG2, 24 h.
Data set [1] is described as follows: metabolic stability assay in rat liver microsomes. As to conditions: 10 μM. In kind it is in vitro ADME. The procedure:
The dissolved test compound (5 μL, final concentration 10 μM) was preincubated at 37 °C in 432 μL of phosphate buffer (0.1 M, pH 7.4) together with a 50 μL NADPH regenerating system (30 mM glucose-6-phosphate, 4 U/mL glucose-6-phosphate dehydrogenase, 10 mM NADP, and 30 mM MgCl2). After 5 min, the reaction was started by the addition of 13 μL of microsome mix from the liver of Sprague–Dawley rats (Invitrogen; 20 mg protein/mL in 0.1 M phosphate buffer) in a shaking water bath at 37 °C. The reaction was stopped by the addition of 500 μL of ice-cold methanol at 0, 15, 30, and 60 min. The samples were centrifuged at 5000 g for 5 min at 4 °C. The supernatants were analyzed, and the test compound was quantified by HPLC: The composition of the mobile phase is adapted tot the test compound in a range of 40-90% acetonitrile and 10-60% water (0.1% formic acid); flow rate: 1 mL/min; stationary phase: PurospherⓇ STAR, RP18, 5 μm, 125 × 4, precolumn: PurospherⓇ STAR, RP18, 5 μm, 4 × 4; detection wavelength: 254 and 280 nm; injection volume: 50 μL. […] The amounts of the test compound were quantified by an external calibration curve. Data are expressed as the mean ± SEM remaining compound from three independent experiments.

Entries after “also recorded” stand apart in the source; their conditions may differ.

`CS(=O)(=O)c1cccc(-c2ccc(CN(Cc3cccc(C(F)(F)F)c3Cl)CC(c3ccccc3)c3ccccc3)cc2)c1` [Compound 3, N-(2-Chloro-3-[trifluoromethyl]benzyl)-N-([3′-{methylsulfonyl}-{1,1′-biphenyl}-4-yl]methyl)-2,2-diphenylethan-1-amine]: the antiproliferative effect result in the data set on HepG2 cells (30 μM) was “did not inhibit the proliferation”. Further, the RORα activity entry on RORα (NR1F1) (30 μM) is listed as “only activated RORα with low efficacy; also recorded: weak RORα activation”. In addition, in the data set with APOE (30 μM), the “APOE mRNA expression” value is “did not significantly alter the expression; also recorded: only a weak impact”. Also, in the data set with SREBP1c (30 μM), the “SREBP1c mRNA expression” value is “repressed SREBP1c expression; also recorded: robustly suppressed SREBP1c”. This compound showed a mrna remaining at 30 µM in the data set with SREBP1c (Homo sapiens, 30 μM) of 10%. In data set [1], this compound registered a metabolic stability above 60 min.
In the case of `CCN(C(=O)c1ccccc1)c1ccc(C(O)(C(F)(F)F)C(F)(F)F)cc1` [Compound 1, N-Ethyl-N-(4-[1,1,1,3,3,3-hexafluoro-2-hydroxypropan-2-yl]phenyl)benzamide], the antiproliferative effect entry with HepG2 cells (10 μM) is “did not inhibit the proliferation”. Further, the RORα activity result at RORα (NR1F1) (off-target profiling, compared with T0901317) is “no activity; also recorded: did not affect”. In addition, the “APOE mRNA expression” value in the data set on APOE (3 μM) was “induced”. Moreover, the “SREBP1c mRNA expression” value in the data set on SREBP1c (3 μM) was “induced”. Further, the metabolic stability in data set [1] is reported as above 60 min.
